From patent US20030118990A1, “Novel estrogen-regulated G protein gamma subunit: compositions and methods of use” (Schering Aktiengesellschaft, priority 2000, published 2003)

Tested on: mGγ12 mRNA
Assay: Northern blot analysis of mGγ12 mRNA in liver of estrogen-treated mice
Assay type: in vivo, mouse
Details: liver RNA; normal male mice treated with estrogen vs ERKO male mice treated with estrogen and un-treated male mice; effect via estrogen receptor alpha, not beta
Experimental: Expressed sequence tags (EST) that represent messenger RNA (mRNA) molecules that are more abundant in the liver of normal male mice treated with estrogen than in the liver of estrogen receptor alpha knockout (ERKO) male mice also treated with estrogen were obtained by subtraction cloning. The DNA sequence of complementary DNA (cDNA) clones representing the full-length mRNA molecules corresponding to one of the above mentioned EST's was obtained.
Northern blot analysis was conducted with RNA prepared from the livers of normal male mice treated with estrogen, ERKO male mice treated with estrogen, and un-treated male mice using a hybridization probe derived from the mGγ12 cDNA.

## estrogen
  transcription of the mGγ12 gene in the liver: activated
